Data published in PubChem BioAssay (NCI).
Values joined by “and” are separate entries in the source; they are usually repeats but may differ in a detail not shown here. Equal entries are not always repeated.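 Compound exposure: 48 hours, 5 concentrations, 96-well plates. Abbreviation: GI50, concentration required for 50% inhibition of growth. TGI is the concentration that stops growth completely.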

Columns and labels:
Test in all cases: DTP human tumour cell line panel, 48 h
HCT-116 colon = system: HCT-116 colon
EKVX NSCLC = system: EKVX NSCLC
UO-31 renal = system: UO-31 renal
SK-MEL-2 melanoma = system: SK-MEL-2 melanoma
SK-MEL-5 melanoma = system: SK-MEL-5 melanoma
HCT-15 colon = system: HCT-15 colon
PC-3 prostate = system: PC-3 prostate
SNB-75 CNS = system: SNB-75 CNS
UACC-257 melanoma = system: UACC-257 melanoma
SR leukemia = system: SR leukemia

Row | SMILES | GI50 (HCT-116 colon) | TGI (HCT-116 colon) | GI50 (EKVX NSCLC) | TGI (EKVX NSCLC) | GI50 (UO-31 renal) | TGI (UO-31 renal) | GI50 (SK-MEL-2 melanoma) | TGI (SK-MEL-2 melanoma) | GI50 (SK-MEL-5 melanoma) | TGI (SK-MEL-5 melanoma) | GI50 (HCT-15 colon) | TGI (HCT-15 colon) | GI50 (PC-3 prostate) | TGI (PC-3 prostate) | GI50 (SNB-75 CNS) | TGI (SNB-75 CNS) | GI50 (UACC-257 melanoma) | TGI (UACC-257 melanoma) | GI50 (SR leukemia) | TGI (SR leukemia)
1 | O=C(Nc1cccc([N+](=O)[O-])c1)c1cc2ccccc2cc1O | 0.772 µM | 3.17 µM | 1.87 µM | 8.2 µM | 1.25 µM | 7.46 µM | 0.876 µM | 2.83 µM | 1.14 µM | 3.56 µM | 2.75 µM | 28.3 µM | 1.49 µM | > 30.5 µM | 2.84 µM | 55.2 µM | 0.881 µM | 5.23 µM | 1.46 µM | 8.17 µM
2 | CC(C)N(Cc1ccccc1)S(=O)(=O)c1n[nH]c(C(C)(C)C)n1 |  | > 100 µM |  | > 100 µM |  | > 100 µM |  | > 100 µM |  | > 100 µM |  | > 100 µM |  | > 100 µM |  | > 100 µM |  | > 100 µM |  | > 100 µM
3 | CN(C)c1ccc(N=C(C#N)c2nc(N)nc(N3CCN(c4ccccc4)CC3)n2)cc1 | 17.4 µM | > 50 µM | > 30.1 µM | > 50 µM | > 18 µM | > 32.5 µM | > 50 µM | > 50 µM | 24.5 µM | > 47.5 µM | > 28.5 µM | > 50 µM | 36.9 µM | > 50 µM | 6.9 µM | 25.6 µM | 28.1 µM | > 44.2 µM | > 50 µM | > 50 µM
4 | COc1cc(N=Nc2cccc(S(N)(=O)=O)c2)c2ccccc2c1N |  | 29.2 µM |  | 27.4 µM |  | 30.6 µM |  | 5.13 µM |  | 3.3 µM |  | 49.5 µM |  | 23.9 µM |  | 4.56 µM |  | 3.37 µM |  | 35.8 µM
5 | O=C(Nc1ccc(-c2ccnc(Nc3ccc(N4CCOCC4)cc3)n2)cc1)C1CCCN1 (stereo not drawn) | 1.43 µM | 18.5 µM | 12.5 µM | 33.7 µM | 4.06 µM | 24.2 µM | 15.2 µM | 35.8 µM | 3.31 µM | 18.9 µM | 0.639 µM | 18.9 µM | 1.79 µM | 31.9 µM | 1.96 µM | 12.5 µM | 8.99 µM | 22.8 µM |  | > 25.6 µM
6 | C[C@H]1CC2=CC(=O)CC[C@]2(C)[C@H]2CC[C@@]3(C)[C@@H](CC[C@]3(C)O)[C@H]12 | 31.2 µM | > 95.2 µM | 11.3 µM | > 100 µM | 20.6 µM | > 78.5 µM | 15.4 µM | 37.4 µM | 14.8 µM | 33.3 µM | 28.2 µM | > 100 µM | 8.65 µM | 99.7 µM | 40.2 µM | > 100 µM | 35.4 µM | > 94.1 µM | 21.7 µM | 55.5 µM
7 | O=C(Nc1ccccc1C(=O)Nc1nccs1)c1ccccc1 |  | > 100 µM |  | > 100 µM |  | > 100 µM |  | > 100 µM |  | 67.3 µM |  | > 100 µM |  | > 100 µM |  | > 100 µM |  | > 100 µM |  | > 100 µM
8 | N#Cc1ccc2c(c1)C(=O)c1c-2n(CCCN=[N+]=[N-])c(=O)c2cc([N+](=O)[O-])ccc12 | 3.91 µM | > 50 µM | > 50 µM | > 50 µM | 13.1 µM | > 50 µM | > 50 µM | > 50 µM | > 50 µM | > 50 µM | > 50 µM | > 50 µM | > 50 µM | > 50 µM | 17.4 µM | > 50 µM | > 50 µM | > 50 µM | 0.373 µM | 4.82 µM
9 | O=[N+]([O-])c1ccc(NC(=S)N/N=C(\c2ccccc2)c2ccccn2)cc1 |  | 3.21 µM | 1.87 µM | 3.45 µM and 2.19 µM |  | 2.79 µM | 2.05 µM | 4.44 µM and 3.69 µM |  | 2.53 µM and 2.74 µM |  | 2.71 µM | 1.16 µM | 2.91 µM and 2.54 µM |  | 3.76 µM | 0.0225 µM | 2.06 µM and 3.26 µM | 0.0286 µM | 2.98 µM and > 27.4 µM
10 | O=S1(=O)CC(Br)C(Br)C1 (stereo not drawn) | 2.34 µM | 6.53 µM | 18.5 µM | 49.8 µM | 3.77 µM | 14.7 µM | 8.74 µM | 28.6 µM | 2.3 µM | 10.3 µM | 2.64 µM | 7.24 µM | 10.7 µM | 26.3 µM | 5.25 µM | 19.1 µM | 4.94 µM | 51.2 µM | 3.58 µM | 21.6 µM
11 | CC(C)=CCC/C(C)=C/[C@H]1OC(=O)CC12C[C@H](O)C=CC2=O (stereo partly drawn) | 0.323 µM | 1.21 µM | 2.21 µM | 5.24 µM | 1.96 µM |  | 1.74 µM | > 45.1 µM | 1.35 µM | 3.17 µM | 0.509 µM | > 100 µM | 0.384 µM | 1.42 µM | 1.64 µM | 4.2 µM | 1.2 µM | 2.82 µM | 0.383 µM | > 100 µM
